PMC12362594, “Design, Synthesis and Preclinical Evaluation of a Brain-Permeable PET Tracer for P2Y12 Receptor Imaging in the Brain” (Journal of Medicinal Chemistry, 2025)
Several values for one entry are separate records, joined by “and”; a condition that tells them apart may be missing. Identical values can stand only once.

How the values were obtained:
P2Y12R [1] = target: P2Y12R (Homo sapiens, UniProt Q9H244); assay: cell-based; details: IC50, [33P]2-MeSADP competitor; triplicates, mean; footnote b values: three independent experiments, mean ± SD
Protocol: The cell cultures were maintained in an incubator at 37 °C under a humidified and 5% CO2-conditioned atmosphere. Cells were passaged at 80% confluency. For binding assays, cells were harvested with Trypsin-EDTA (5 mL, Gibco) and resuspended in medium. The suspension was centrifuged at 1000g for 5 min and the supernatant was discarded. The cells were adjusted to assay cell concentration (2 × 10^6 cells/mL) by the addition of D-PBS and stored at 37 °C up to 1 h prior to the binding assay.
The mixture was transferred to a 96-well filter plate (1.0 μm glass fiber filter, MultiScreenHTS FB Filter Plate, Merck Millipore, Billercia, MA) and filtered with a vacuum manifold (MultiScreenHTS Vacuum Manifold, Merck Millipore, Billercia, MA). The filters were washed by the addition of cold PBS buffer (4 × 200 μL) and dried at rt for 1 h. Afterward, a punch-tip plate was mounted and the filters were separated into scintillation vials (10 mL) containing scintillation cocktail (4 mL, Rotiszint eco plus LSC-Universalcocktail). […] Bound activity was plotted as a function of ligand concentration in GraphPad Prism 8.0 (GraphPad Software, version 8.4.3., San Diego, CA).

P2Y12 receptor = target: P2Y12 receptor; design: method as in not given; details: Chinese hamster ovarian cell membranes; reported values from literature; ref not given; cited from earlier work
[2] = Ex vivo biodistribution 60 min p.i.; format: in vivo, mouse; details: WT mice
[3] = In vitro stability in PBS, radio-HPLC; details: PBS formulation, 37 °C
[4] = Log D 7.4 shake flask method, n-octanol/PBS; details: pH 7.4
Protocol: The distribution of [^18F]12 between n-octanol and PBS buffer was determined by the shake-flask method at rt. […] After 30 min, three samples (100 μL) were taken from each phase. […] Radioactivity for all samples was quantified by a γ-counter (counting time 1 min, counting window 450–570 keV, HIDEX AMG γ Counter version 1.6.0.0, Turku, Finland).

[5] = In vitro stability in human blood/plasma, radio-HPLC; details: 37 °C
P2Y12R [6] = target: T1, P2Y12R (Mus musculus, UniProt Q9CPV9); assay: Dynamic in vivo PET imaging in WT, PLX and Trem2-/- mice; details: for maximum brain uptake C max: whole brain TAC
Protocol: Dynamic in vivo PET imaging was carried out in WT mice (n = 8) in order to assess the tracer distribution and brain uptake for [^18F]12 (Figure A). An initial peak of activity and subsequent rapid washout in blood and lungs was observed after tracer injection. The activity then predominantly accumulated in the liver, kidneys, bladder and intestines (Figure B). […] Dynamic in vivo PET imaging was repeated with WT mice (n = 2) under self-block conditions. […] Mouse organs were collected 60 min p.i. after intracardial perfusion to quantify the tracer uptake ex vivo.
To exclude a potential bias in brain PET interpretation caused by varying blood levels, volume-of-distribution (V T) images were computed using an image-derived cardiac input function.
The mice were scanned first with CT (70 kVp/650 μA, exposure time 300 ms, Helical 1.0 pitch). […] PET images of each mouse were coregistered with CT images of the corresponding mouse. A standardized global mean volume of interest (VOI) was used to assess tracer enrichment in the brain and to generate time-activity curves. For liver, bladder and kidney, VOIs were manually drawn as spheres. Data are reported as %ID/g or SUV. For each dynamic PET scan, VT was calculated using the method described by Logan et al., employing a cardiac input function obtained from a standardized VOI. The resulting brain V T image was then analyzed using a standardized global mean VOI. No corrections were made for radiometabolites.

[7] = Ex vivo metabolite analysis by radio-HPLC (plasma, liver, brain); details: 60 min p.i.
Protocol: 60 min after tracer administration, mice were transferred to the anesthesia box for isoflurane overdose and euthanized by cervical dislocation. Mouse organs and blood samples were collected, weighed and counted in a γ-counter. Blood samples were obtained by cardiac puncture and transferred to EDTA tubes (Microvette 500 K3E, Sarstedt, Nümbrecht, Germany) to prevent platelet aggregation. Blood samples were centrifuged at 3000g for 5 min to isolate blood plasma. An equal volume of TFA solution (10%) was added to plasma to precipitate remaining plasma proteins. The precipitate was separated by centrifugation at 20,817g for 5 min. […] Brain and liver samples were homogenized (Ika disperser T8.10) in a 1:1 mixture of MeCN and H2O and centrifuged at 3000g for 5 min.

P2Y12R [8] = target: T1, P2Y12R; assay: In vitro autoradiography on mouse brain sections; format: binding; design: from tissue; host or cells: brain of living WT, PLX-5622-treated and Trem2-/- mice
Protocol: In vitro ARG experiments on brain sections from all animal models were performed under baseline and blocking conditions. […] However, as already concluded from our PET data (Figure ), the high signal in PLX sections may reflect a substantial amount of nonspecific (NSB) or off-target binding.
WT, PLX and Trem2^–/– mouse brain sections were thawed to rt for 5 min and then preincubated with PBS buffer (pH = 7.4) for 10 min. Sections were then incubated with a maximum of 0.5 MBq/mL [^18F]12 tracer formulation at rt for 45 min in PBS buffer. […] Subsequently, sections were washed with 30% ethanol for 1 min, 70% ethanol for 2 min and PBS for 1 min, before leaving them to dry at rt for 60 min. Afterward, brain sections were exposed to a phosphor imaging plate at rt for 24 h and then scanned with a CR-Reader (CR35 BIO, DÜRR MEDICAL, Bietigheim-Bissingen, Germany). The images were analyzed using Aida Image Analyzer software (v.4.50.010, Elysia-raytest GmbH, Straubenhardt, Germany). Quantification was performed by placing a region of interest (ROI) in the CTX and the hypothalamus (HYP) as pseudo reference region. Results are either expressed as normalized intensity relative to maximal intensity after background subtraction or as CTX to HYP ratio.

P2Y12R [9] = target: T1, P2Y12R; assay: Correlation of PET signal with immunohistochemistry; format: in vivo; design: from tissue; host or cells: brain of living WT, PLX-5622-treated and Trem2-/- mice; details: cortical SUV 25–60 min p.i.
Protocol: Ex vivo immunohistochemical evaluation of Iba1 and P2Y12R expression was performed for a subset of mice (4 WT, 4 PLX, 8 Trem2^–/–) to correlate P2Y12 PET signal with target expression. […] High levels of Iba1 and P2Y12R were also detectable in Trem2^–/– mice, but reflecting the results of the PET studies, P2Y12R levels were not elevated compared to WT mice. Cortical SUV levels, derived from PET imaging in the most significant time frame (25–60 min p.i.) (Figure S12D), were correlated with Iba1 or P2Y12R expression density. A strong association between Iba1 signal and tracer uptake (R = 0.6589, p = 0.0055, Figure B) and between the P2Y12R signal and tracer uptake (R = 0.754, p = 0.0007, Figure C) was observed. The P2Y12 signal was well associated with Iba1 (R = 0.6, p = 0.014, Figure D) indicating predominant microglial receptor visualization.
Paraformaldehyde-fixed 50 μm thick sagittal brain sections were incubated overnight at 4 °C in PBS with 5% normal goat serum and 0.5% Triton X-100 containing guinea pig monoclonal anti-Iba1 primary antibody (1:500, Synaptic Systems GmbH, Göttingen, Germany, 234308) and rat monoclonal anti-P2Y12R primary antibody (1:200, P2YM 17A12, this work). […] The images were processed using the LAS X Software (version 3.9.1.28433), and analysis was conducted with FiJi/ImageJ (version 1.54f) by quantifying Iba1 and P2Y12R signal over a predefined threshold. […]

T1 sequence (Q9CPV9 whole entry): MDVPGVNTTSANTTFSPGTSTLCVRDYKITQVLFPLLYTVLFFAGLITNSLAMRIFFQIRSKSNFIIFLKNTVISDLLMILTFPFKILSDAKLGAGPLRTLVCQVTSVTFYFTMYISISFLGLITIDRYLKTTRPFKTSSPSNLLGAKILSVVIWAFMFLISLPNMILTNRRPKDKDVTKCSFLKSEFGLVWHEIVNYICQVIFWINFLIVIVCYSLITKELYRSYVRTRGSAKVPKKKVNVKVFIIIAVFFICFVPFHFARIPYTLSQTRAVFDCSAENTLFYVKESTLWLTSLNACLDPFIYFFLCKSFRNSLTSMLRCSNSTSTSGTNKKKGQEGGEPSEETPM
Sequence of P2Y12R (Homo sapiens, UniProt Q9H244) (Q9H244 whole entry): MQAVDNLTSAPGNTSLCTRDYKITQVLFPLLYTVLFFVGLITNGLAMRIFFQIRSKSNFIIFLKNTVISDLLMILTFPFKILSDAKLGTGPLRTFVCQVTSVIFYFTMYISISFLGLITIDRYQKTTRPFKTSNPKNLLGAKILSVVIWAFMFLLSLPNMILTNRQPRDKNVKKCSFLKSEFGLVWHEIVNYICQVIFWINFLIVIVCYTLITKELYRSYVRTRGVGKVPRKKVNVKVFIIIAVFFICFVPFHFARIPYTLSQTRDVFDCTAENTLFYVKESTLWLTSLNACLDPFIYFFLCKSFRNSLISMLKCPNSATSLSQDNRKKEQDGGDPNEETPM

N#Cc1cc2c(nc1N1CCC(C(=O)NCc3ccc(F)cc3)CC1)COC2=O [Compound 14, 1-(3-Cyano-5-oxo-5,7-dihydrofuro[3,4-b]-pyridin-2-yl)-N-(4-fluorobenzyl)-piperidine-4-carboxamide]
IC50 (P2Y12R [1]): 199 nM

CCOC(=O)c1cc(Cl)c(N2CCC(C(=O)NCCc3ccc(F)cc3)CC2)nc1C [Compound 17, Ethyl 5-Chloro-6-(4-((4-fluorophenethyl)-carbamoyl)-piperidin-1-yl)-2-methylnicotinate]
IC50 (P2Y12R [1]): 661 nM and 469 nM

CCOC(=O)c1cc(C#N)c(N2CCC(C(=O)NS(=O)(=O)Cc3ccccc3)CC2)nc1C [Compound 5, Ethyl 6-(4-((Benzylsulfonyl)-carbamoyl)-piperidin-1-yl)-5-cyano-2-methylnicotinate, reference compound]
IC50 (P2Y12 receptor): 11 nM

CCOC(=O)c1cc(C#N)c(N2CCC(C(=O)NCCc3ccc(F)cc3)CC2)nc1C [Compound 18, Ethyl 5-Cyano-6-(4-((4-fluorophenethyl)-carbamoyl)-piperidin-1-yl)-2-methylnicotinate]
IC50 (P2Y12R [1]): 27100 nM

N#Cc1cc2c(nc1N1CCN(C(=O)NCc3ccc(F)cc3)CC1)COC2=O [Compound 8, 4-(3-Cyano-5-oxo-5,7-dihydrofuro[3,4-b]-pyridin-2-yl)-N-(4-fluorobenzyl)-piperazine-1-carboxamide]
IC50 (P2Y12R [1]): 1840 nM and 5710 nM

CCOC(=O)c1ccc(N2CCC(C(=O)NCc3ccc(F)cc3)CC2)nc1C [Compound 9, Ethyl 6-(4-((4-Fluorobenzyl)-carbamoyl)-piperidin-1-yl)-2-methylnicotinate]
IC50 (P2Y12R [1]): 762 nM

CCOC(=O)c1ccc(N2CC(C(=O)NCc3ccc(F)cc3)C2)nc1C [Compound 20, Ethyl 6-(3-((4-Fluorobenzyl)-carbamoyl)-azetidin-1-yl)-2-methylnicotinate]
IC50 (P2Y12R [1]): 806 nM

CCOC(=O)c1cc(C#N)c(N2CCN(C(=O)NCc3ccc(F)cc3)CC2)nc1C [Compound 7, Ethyl 5-Cyano-6-(4-((4-fluorobenzyl)-carbamoyl)-piperazin-1-yl)-2-methylnicotinate]
IC50 (P2Y12R [1]): 1840 nM

CCCOc1cc(N2CCC(C(=O)NCCc3ccc(F)cc3)CC2)c(Cl)cc1C(=O)OCC [Compound 19, Ethyl 5-Chloro-4-(4-((4-fluorophenethyl)-carbamoyl)-piperidin-1-yl)-2-propoxybenzoate]
IC50 (P2Y12R [1]): 27100 nM and 3670 nM

CCOC(=O)c1cnc(N2CC(C(=O)NCc3ccc(F)cc3)C2)c(Cl)c1 [Compound 21, Ethyl 5-Chloro-6-(3-((4-fluorobenzyl)-carbamoyl)-azetidin-1-yl)-nicotinate]
IC50 (P2Y12R [1]): 566 nM

CCOC(=O)c1cc(C#N)c(N2CCC(C(=O)NCc3ccc([18F])cc3)CC2)nc1C [[^18F]12]
Heart uptake ([2]; n = 2): 1.30 ± 0.51 %ID/g | Kidney uptake ([2]; n = 2): 5.5 ± 1.1 %ID/g | Liver uptake ([2]; n = 2): 19.6 ± 4.8 %ID/g | Lung uptake ([2]; n = 2): 0.68 ± 0.15 %ID/g | Pancreas uptake ([2]; n = 2): 0.79 ± 0.14 %ID/g | Plasma uptake ([2]; n = 2): 1.58 ± 0.78 %ID/g | Spleen uptake ([2]; n = 2): 0.77 ± 0.19 %ID/g | Kidney uptake ([2]; n = 2, listed as [18F]12): 5.51 ± 1.08 %ID/g | Liver uptake ([2]; n = 2, listed as [18F]12): 19.62 ± 4.75 %ID/g | Blood uptake ([2]; n = 12): 1.2 ± 0.6 %ID/g | Brain uptake ([2]; n = 12): 0.6 ± 0.2 %ID/g | Blood uptake ([2]; n = 12, listed as [18F]12): 1.24 ± 0.56 %ID/g | Brain uptake ([2]; n = 12, listed as [18F]12): 0.61 ± 0.21 %ID/g | time stable with no decomposition [3]: at least 2 h | logD [4]: 2.67 ± 0.45 | time stable with no decomposition [5]: at least 2 h | higher brain accumulation in WT compared to PLX mice (P2Y12R [6]; 25–60 min p.i., p = 0.0029): 42% | higher brain accumulation in Trem2-/- compared to PLX mice (P2Y12R [6]; 25–60 min p.i., p = 0.0362): 30% | maximum brain uptake C max (P2Y12R [6]; Trem2-/- mice): 1.7 ± 0.5 SUV | brain uptake under self-block conditions (P2Y12R [6]; WT mice n = 2, 200-fold excess of nonradioactive 12 injected 10 min prior): increased brain uptake | C 25min/C 60min (P2Y12R [6]; WT mice, brain TAC plateau phase): ~1.5 | time of maximum brain uptake (P2Y12R [6]; WT mice, p.i.): ≤ 2 min | maximum brain uptake C max (P2Y12R [6]; WT mice): 2.5 ± 0.7 SUV | brain V T increase in WT compared to PLX mice (P2Y12R [6]; image-derived cardiac input function, p = 0.002): 16% | brain V T increase in Trem2-/- compared to PLX mice (P2Y12R [6]; image-derived cardiac input function, p = 0.0454): 10% | maximum brain uptake C max (P2Y12R [6]; microglia-depleted (PLX) mice): 2.0 ± 0.5 SUV | fraction of radioactivity in liver ([7]; WT mice, radio-HPLC): 47% | fraction of radioactivity in plasma ([7]; WT mice, radio-HPLC): about 11% | intact tracer in plasma ([7]; WT, PLX and Trem2-/- mice): 7 ± 4% | intact tracer in brain ([7]; all groups): > 99% | cortical signal under blocking with Ticagrelor (P2Y12R [8]; PLX sections, 1 μM ticagrelor, p > 0.05): no reduction was observed | cortical signal under blocking with Ticagrelor (P2Y12R [8]; Trem2-/- sections, 1 μM ticagrelor, p < 0.05): significantly reduced | cortical signal under blocking with Ticagrelor (P2Y12R [8]; WT sections, 1 μM ticagrelor (1000-fold excess), p < 0.001): significantly reduced | signal under blocking with nonradioactive compound 12 (P2Y12R [8]; WT, PLX and Trem2-/- sections, 1 μM 12 (1000-fold excess)): almost complete blocking of the signal | CTX signal normalized to HYP, PLX sections compared to WT and Trem2-/- (P2Y12R [8]; WT: p < 0.005, Trem2-/-: p < 0.001): significant decreased uptake | correlation R between P2Y12R signal and tracer uptake (P2Y12R [9]; p = 0.0007): 0.754 | correlation R between Iba1 signal and tracer uptake (P2Y12R [9]; p = 0.0055): 0.6589

CCOC(=O)c1cnc(N2CCC(C(=O)NCCc3ccc(F)cc3)CC2)c(Cl)c1 [Compound 16, Ethyl 5-Chloro-6-(4-((4-fluorophenethyl)-carbamoyl)-piperidin-1-yl)-nicotinate]
IC50 (P2Y12R [1]): 661 nM

CCOC(=O)c1ccc(N2CCC(C(=O)NCCc3ccc(F)cc3)CC2)nc1C [Compound 15, Ethyl 6-(4-((4-Fluorophenethyl)-carbamoyl)-piperidin-1-yl)-2-methylnicotinate]
IC50 (P2Y12R [1]): 1260 nM
